Data taken from BindingDB's records for patent US20250034165 (Chia Tai Tianqing Pharmaceutical Group, 2025).

What was measured:
[1] = target: Epidermal growth factor receptor (EGFR)(L858R)(T790M) (Homo sapiens, UniProt P00533, L858R/T790M); assay: Inhibitory Activity for EGFR (L858R/T790M) Kinase
Protocol: (§1) A 50 ng/μL EGFR (L858R/T790M, Carna) stock solution was diluted with a kinase buffer (50 mM HEPES, 10 mM MgCl2, 2 mM DTT, 1 mM EGTA, 0.01% Tween 20), and 6 μL of 1.67× working solution at 0.004175 ng/μL (final concentration: 0.0025 ng/μL) was added to each well. Different compounds dissolved in DMSO were added to wells using a nanoliter pipettor, resulting in the final concentrations of the compounds of 10 nM to 0.0024 nM (4-fold gradient, 7 concentrations in total), and blank control wells (without enzyme) and negative control wells (with enzyme, plus vehicle DMSO) were set, 2 replicate wells for each concentration. After enzyme was reacted with the compound or vehicle for 30 min, 5×ATP at 25 μM (final concentration: 5 μM, Sigma) prepared with a kinase buffer was mixed with 5× substrate at 0.5 μM (final concentration: 0.1 μM, ULight-poly GT, PerkinElmer) at a ratio of 1:1 (v:v), and the mixture was added to each well at 4 μL/well. After being sealed with a film, the plate was incubated at room temperature for 2 h, and then 5 μL of 4×EDTA at 40 mM (final concentration: 10 mM) was added to each well. After the plate was incubated for 5 min at room temperature, 5 μL of 4× detection reagent at 8 nM (final concentration: 2 nM, Eu-anti-phospho-tyrosine antibody, PerkinElmer) was added to each well. After being incubated at room temperature for 1 h, the plate was read using a PerkinElmer Envision multi-mode microplate reader (excitation: 320 nm, emission: 665 nm), and IC50 was calculated by four-parameter fitting.

[2] = target: Epidermal growth factor receptor [T790M,C797S,L858R] (UniProt P00533, C797S/L858R/T790M); assay: Inhibitory Activity for EGFR (L858R/T790M/C797S) Kinase
Protocol: as §1, with “(L858R/T790M/C797S, BPS)” for “(L858R/T790M, Carna)”, “0.00167” for “0.004175”, “0.001” for “0.0025”

Sequence of Epidermal growth factor receptor (EGFR)(L858R)(T790M) (P00533 25-1210 T790M/L858R limits assumed): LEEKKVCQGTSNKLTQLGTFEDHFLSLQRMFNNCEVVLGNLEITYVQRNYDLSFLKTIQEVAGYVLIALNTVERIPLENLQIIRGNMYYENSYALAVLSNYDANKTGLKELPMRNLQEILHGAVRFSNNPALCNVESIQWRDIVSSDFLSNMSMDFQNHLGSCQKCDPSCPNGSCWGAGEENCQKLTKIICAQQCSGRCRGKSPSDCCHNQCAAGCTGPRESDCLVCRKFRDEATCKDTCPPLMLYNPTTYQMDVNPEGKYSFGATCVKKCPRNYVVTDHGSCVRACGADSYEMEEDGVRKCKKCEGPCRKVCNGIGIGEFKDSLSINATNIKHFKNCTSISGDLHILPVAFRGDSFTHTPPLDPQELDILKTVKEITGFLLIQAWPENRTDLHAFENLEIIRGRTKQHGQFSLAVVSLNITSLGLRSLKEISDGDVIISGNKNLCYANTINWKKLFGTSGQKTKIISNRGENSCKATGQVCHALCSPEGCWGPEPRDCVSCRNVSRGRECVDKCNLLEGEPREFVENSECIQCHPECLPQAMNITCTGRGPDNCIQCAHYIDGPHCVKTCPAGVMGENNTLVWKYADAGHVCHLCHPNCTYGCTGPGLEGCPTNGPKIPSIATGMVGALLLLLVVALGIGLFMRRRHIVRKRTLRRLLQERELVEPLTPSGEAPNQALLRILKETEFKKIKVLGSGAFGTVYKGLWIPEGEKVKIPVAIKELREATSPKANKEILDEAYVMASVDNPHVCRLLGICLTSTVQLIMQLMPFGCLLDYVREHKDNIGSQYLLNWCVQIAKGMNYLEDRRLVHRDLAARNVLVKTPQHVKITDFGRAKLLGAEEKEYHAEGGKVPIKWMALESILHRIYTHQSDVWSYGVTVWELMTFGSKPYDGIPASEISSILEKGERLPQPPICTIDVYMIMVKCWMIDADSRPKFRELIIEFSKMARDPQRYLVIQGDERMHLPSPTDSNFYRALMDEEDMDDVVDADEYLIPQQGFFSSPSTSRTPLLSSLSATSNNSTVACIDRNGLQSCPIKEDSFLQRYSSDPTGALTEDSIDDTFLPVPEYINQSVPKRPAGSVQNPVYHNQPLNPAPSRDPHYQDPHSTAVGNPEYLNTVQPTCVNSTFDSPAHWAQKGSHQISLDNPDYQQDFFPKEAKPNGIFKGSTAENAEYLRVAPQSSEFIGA
Sequence of Epidermal growth factor receptor [T790M,C797S,L858R] (P00533 25-1210 T790M/C797S/L858R limits assumed): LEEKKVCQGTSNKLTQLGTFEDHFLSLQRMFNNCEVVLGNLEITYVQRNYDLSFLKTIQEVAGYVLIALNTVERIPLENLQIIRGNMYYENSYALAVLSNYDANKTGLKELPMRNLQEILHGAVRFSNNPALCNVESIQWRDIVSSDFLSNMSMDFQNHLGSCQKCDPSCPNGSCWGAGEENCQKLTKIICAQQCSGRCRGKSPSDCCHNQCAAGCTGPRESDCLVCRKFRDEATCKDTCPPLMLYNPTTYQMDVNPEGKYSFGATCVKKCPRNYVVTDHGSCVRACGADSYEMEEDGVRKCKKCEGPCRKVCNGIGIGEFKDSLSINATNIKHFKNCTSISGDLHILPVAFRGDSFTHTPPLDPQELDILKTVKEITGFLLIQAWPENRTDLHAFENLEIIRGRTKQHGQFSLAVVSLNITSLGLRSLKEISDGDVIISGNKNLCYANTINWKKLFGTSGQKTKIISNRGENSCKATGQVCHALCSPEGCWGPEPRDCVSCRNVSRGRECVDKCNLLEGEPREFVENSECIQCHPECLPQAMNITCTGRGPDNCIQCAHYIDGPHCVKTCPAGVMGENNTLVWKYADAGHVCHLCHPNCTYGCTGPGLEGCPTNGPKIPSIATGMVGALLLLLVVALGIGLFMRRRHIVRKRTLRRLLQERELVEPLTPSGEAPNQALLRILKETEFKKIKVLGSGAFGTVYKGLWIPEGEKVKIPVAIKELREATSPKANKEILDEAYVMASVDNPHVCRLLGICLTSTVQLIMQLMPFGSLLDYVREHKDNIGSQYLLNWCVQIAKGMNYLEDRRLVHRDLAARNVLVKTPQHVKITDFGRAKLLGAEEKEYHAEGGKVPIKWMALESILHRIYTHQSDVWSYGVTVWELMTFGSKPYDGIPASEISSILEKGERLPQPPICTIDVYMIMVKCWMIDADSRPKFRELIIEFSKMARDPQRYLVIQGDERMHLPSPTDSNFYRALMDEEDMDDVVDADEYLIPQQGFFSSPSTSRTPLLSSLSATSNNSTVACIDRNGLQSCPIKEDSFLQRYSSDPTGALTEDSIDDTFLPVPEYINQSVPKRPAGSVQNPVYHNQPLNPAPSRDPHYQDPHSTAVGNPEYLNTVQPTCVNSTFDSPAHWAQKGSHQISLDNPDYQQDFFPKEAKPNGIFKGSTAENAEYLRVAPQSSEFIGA

| IC50 [1] [nM] | IC50 [2] [nM] | Compound |
| --- | --- | --- |
| 0.17 | 0.094 | Cc1cc2cc(n1)-c1cnn(C)c1OCCC[C@@H](C1CC1)CN1/C(=N/C2=O)Nc2cc(N[C@H]3C[C@@H](N(C)C)C3)ccc21 [US20250034165, Example 125] |
|  | 0.21 | Cc1cc2cc(n1)-c1cnn(C)c1OCCC[C@@H](C1CC1)CN1/C(=N/C2=O)Nc2ccc(N[C@H]3CC[C@@H](N(C)C)CC3)cc21 [US20250034165, Example 99] |
| 0.61 | 0.5 | Cc1cc2cc(n1)-c1cnn(C)c1OCCC[C@@H](C1CC1)CN1/C(=N/C2=O)Nc2cc(NC3CC(N(C)C)C3)ccc21 (stereo partly specified) [US20250034165, Example 93] |
| 0.11 | 0.4 | Cc1cc2cc(n1)-c1cnn(C)c1OCCC[C@@H](C1CC1)CN1/C(=N/C2=O)Nc2ccc(N[C@H](C)CCN3CCCCC3)cc21 [US20250034165, Example 143] |
| 0.14 | 0.49 | Cc1cc2cc(n1)-c1cnn(C)c1OCCC[C@@H](C1CC1)CN1/C(=N/C2=O)Nc2cc(N[C@H](C)CN(C)C)ccc21 [US20250034165, Example 67] |
| 0.3 | 0.36 | Cc1cc2cc(n1)-c1cnn(C)c1OCCC[C@@H](C1CC1)CN1/C(=N/C2=O)Nc2ccc(N[C@@H]3CC[C@@H](N(C)C)C3)cc21 [US20250034165, Example 130] |
| 0.087 | 0.21 | Cc1cc2cc(n1)-c1cnn(C)c1OCCC[C@@H](C1CC1)CN1/C(=N/C2=O)Nc2cc(N[C@H](C)CCN3CCCCC3)ccc21 [US20250034165, Example 139] |
| 0.14 | 0.12 | Cc1cc2cc(n1)-c1cnn(C)c1OCCC[C@@H](C1CC1)CN1/C(=N/C2=O)Nc2ccc(NC(=O)CCN(C)C)cc21 [US20250034165, Example 112] |
| 0.77 | 0.45 | Cc1cc2cc(n1)-c1cnn(C)c1OCCC[C@@H](C1CC1)CN1/C(=N/C2=O)Nc2ccc(N(C)C3CCN(C)CC3)cc21 [US20250034165, Example 117] |
| 0.41 | 0.35 | Cc1cc2cc(n1)-c1cnn(C)c1OCCC[C@@H](C1CC1)CN1/C(=N/C2=O)Nc2ccc(N[C@H]3C[C@@H](N(C)C)C3)cc21 [US20250034165, Example 127] |
| 0.71 | 0.34 | Cc1cc2cc(n1)-c1cnn(C)c1OCCC[C@@H](C1CC1)CN1/C(=N/C2=O)Nc2ccc(N[C@H]3CC[C@H](N(C)C)C3)cc21 [US20250034165, Example 136] |
| 0.14 | 0.35 | Cc1cc2cc(n1)-c1cnn(C)c1OCCC[C@@H](C1CC1)CN1/C(=N/C2=O)Nc2ccc(N[C@@H](C)CN3CCCCC3)cc21 [US20250034165, Example 142] |
| 0.12 |  | Cc1cc2cc(n1)-c1cnn(C)c1OCCC[C@@H](C1CC1)CN1/C(=N/C2=O)Nc2cc(N[C@H]3C[C@H](N(C)C)C3)ccc21 [US20250034165, Example 126] |
| 0.084 | 0.24 | Cc1cc2cc(n1)-c1cnn(C)c1OCCC[C@@H](C1CC1)CN1/C(=N/C2=O)Nc2ccc(N[C@H](C)CN3CCCCC3)cc21 [US20250034165, Example 141] |
| 0.094 |  | Cc1cc2cc(n1)-c1cnn(C)c1OCCC[C@@H](C1CC1)CN1/C(=N/C2=O)Nc2cc(N[C@H]3CC[C@@H](N(C)C)C3)ccc21 [US20250034165, Example 131] |
| 0.8 | 0.6 | Cc1cc2cc(n1)-c1cnn(C)c1OCCC[C@@H](C1CC1)CN1/C(=N/C2=O)Nc2cc(NC(C)C3(C)COC3)ccc21 (stereo partly specified) [US20250034165, Example 89] |

| IC50 [1] [nM] | IC50 [2] [nM] | Compound |
| --- | --- | --- |
| 0.11 | 0.3 | Cc1cc2cc(n1)-c1cnn(C)c1OCCC[C@@H](C1CC1)CN1/C(=N/C2=O)Nc2cc(N[C@@H](C)CCN3CCCCC3)ccc21 [US20250034165, Example 140] |
| 0.082 |  | Cc1cc2cc(n1)-c1cnn(C)c1OCCC[C@@H](C1CC1)CN1/C(=N/C2=O)Nc2ccc(N[C@H]3CC[C@@H](N(C)C)C3)cc21 [US20250034165, Example 132] |
| 0.13 | 0.52 | Cc1cc2cc(n1)-c1cnn(C)c1OCCC[C@@H](C1CC1)CN1/C(=N/C2=O)Nc2cc(N[C@H](C)CN3CCCCC3)ccc21 [US20250034165, Example 137] |
| 0.23 |  | Cc1cc2cc(n1)-c1cnn(C)c1OCCC[C@@H](C1CC1)CN1/C(=N/C2=O)Nc2ccc(N[C@H]3CC[C@H](N(C)C)CC3)cc21 [US20250034165, Example 100] |
| 0.26 |  | Cc1cc2cc(n1)-c1cnn(C)c1OCCC[C@@H](C1CC1)CN1/C(=N/C2=O)Nc2ccc(NC(=O)CN(C)C)cc21 [US20250034165, Example 111] |
| 0.3 | 0.39 | Cc1cc2cc(n1)-c1cnn(C)c1OCCC[C@@H](C1CC1)CN1/C(=N/C2=O)Nc2cc(N[C@@H]3CC[C@@H](N(C)C)C3)ccc21 [US20250034165, Example 129] |
| 0.15 | 0.12 | Cc1cc2cc(n1)-c1cnn(C)c1OCCC[C@@H](C1CC1)CN1/C(=N/C2=O)Nc2ccc(NC(=O)CCCN(C)C)cc21 [US20250034165, Example 113] |
| 0.23 | 0.25 | Cc1cc2cc(n1)-c1cnn(C)c1OCCC[C@@H](C1CC1)CN1/C(=N/C2=O)Nc2cc(N[C@H]3CC[C@H](O)CC3)ccc21 [US20250034165, Example 151] |
| 0.63 | 0.46 | Cc1cc2cc(n1)-c1cnn(C)c1OCCC[C@@H](C1CC1)CN1/C(=N/C2=O)Nc2ccc(N[C@H]3C[C@H](N(C)C)C3)cc21 [US20250034165, Example 128] |
| 0.08 | 0.17 | Cc1cc2cc(n1)-c1cnn(C)c1OCCC[C@@H](C1CC1)CN1/C(=N/C2=O)Nc2ccc(N[C@@H](C)CCN3CCCCC3)cc21 [US20250034165, Example 144] |
| 0.26 | 0.28 | Cc1cc2cc(n1)-c1cnn(C)c1OCCC[C@@H](C1CC1)CN1/C(=N/C2=O)Nc2ccc(NC3CC(N(C)C)C3)cc21 (stereo partly specified) [US20250034165, Example 98] |
| 0.13 | 0.35 | Cc1cc2cc(n1)-c1cnn(C)c1OCCC[C@@H](C1CC1)CN1/C(=N/C2=O)Nc2cc(N[C@@H](C)CN3CCCCC3)ccc21 [US20250034165, Example 138] |
| 0.55 | 0.48 | Cc1cc2cc(n1)-c1cnn(C)c1OCCC[C@@H](C1CC1)CN1/C(=N/C2=O)Nc2ccc(N[C@@H]3CC[C@H](N(C)C)C3)cc21 [US20250034165, Example 134] |
| 0.32 | 0.43 | Cc1cc2cc(n1)-c1cnn(C)c1OCCC[C@@H](C1CC1)CN1/C(=N/C2=O)Nc2cc(N[C@H]3CC[C@H](N(C)C)C3)ccc21 [US20250034165, Example 135] |
| 0.49 | 0.66 | Cc1cc2cc(n1)-c1cnn(C)c1OCCC[C@@H](C1CC1)CN1/C(=N/C2=O)Nc2cc(N[C@@H]3CC[C@H](N(C)C)C3)ccc21 [US20250034165, Example 133] |
